Read-outs that look alike come from different tables or passages of the source.

Among the data in paper PMC7736581, “Activation of the IRE1 RNase through remodeling of the kinase front pocket by ATP-competitive ligands” (Nature Communications, 2020) are inhibition and EC50 values, retold here.

Assay in all cases: biochemical
For one experiment, the target named is T1, PRK1 (Homo sapiens, UniProt Q16512).
T1 construct: gene PKN1
Further details: Invitrogen kinase panel: Z'Lyte activity (ATP at Km) or LanthaScreen competitive ATP-site binding, percent inhibition.

Experiment [1] deals with Inositol-Requiring Enzyme 1 (IRE1) (Homo sapiens, UniProt O75460). Also noted: gene ERN1; IRE1 cytoplasmic kinase-RNase construct; kinetic fluorescence RNA cleavage (FAM/BHQ XBP1 stem-loop) by IRE1 LKR Q470-L977. The method, then: A 5′-Carboxyfluorescein (FAM)-and 3′-Black Hole Quencher (BHQ)-labeled single stem-loop mini-substrate containing XBP1 sequence (sequence reported in Supplementary Table 4) was used as substrate for cleavage by IRE1 LKR (Q470-L977) or IRE1 KR (G547-L977) in 20 mM HEPES pH 7.5, 50 mM potassium acetate, 1 mM magnesium acetate, 1 mM dithiothreitol, 0.05% v/v TritonX-100. Concentrations were as follows: 8 nM IRE1 LKR and 200 nM RNA substrate; 22 nM IRE1 KR-0P and 200 nM RNA substrate; 2 nM IRE1 KR 3P and 500 nM RNA substrate. RNA cleavage was measured kinetically over an hour at room temperature as an increase in fluorescence. The final reaction was carried out in 20 µL in 384-well plates. Samples were run in duplicate. To investigate whether this peculiar conformation had any role in the mechanism of activation of G-1749, we evaluated different tails to substitute the ethyl carbamate on the naphthyl moiety (Fig. 3, Supplementary Table 2). […] This is likely due to clashes with residues lining the front pocket, which in turn would force the tails to occupy the back pocket and break the salt bridge, thereby causing RNase inhibition. […] Experiments in KMS-11 cells (Fig. 3b, c, right panels) confirmed the effect of these tail modifications on IRE1 RNase activation. […] The chemical substituents tolerated by the front pocket seem to be very limited: even a minor substitution of the carbamate oxygen atom to a larger [compound left out], from ethyl carbamate to propyl amide (compound 6), or from methyl carbamate to methyl or ethyl amide (compound 4 or 5, respectively), or increasing the tail length by one atom, from ethyl to propyl carbamate (compound 11), is enough to impart a switch from activation to inhibition (Fig. 3b, c). […] RNA cleavage was measured by a kinetic fluorescence assay using an XBP1-like RNA hairpin substrate and IRE1 LKR construct (Q470-L977). Background from the no-protein control was subtracted from signal before calculating fold change. Source data are provided as a Source Data file. Data are presented as the mean for measurements from two independent experiments (n = 2). c RNA levels for IRE1 RNase product XBP1s measured by bDNA assay of lysates from KMS-11 cells treated with compounds for 4 h. Background from the no-RNA control was subtracted from signal before calculating fold change. Source data are provided as a Source Data file. Data are presented as the mean for measurements from two independent experiments (n = 2). d, e Analytical Ultracentrifugation sedimentation velocity (SV-AUC) experiments for (d), IRE1 LKR (Q470-L977) unphosphorylated and autophosphorylated and (e), IRE1 LKR unphosphorylated in the presence of slight excess G-9807 and G-1749. Calculated sedimentation coefficients for IRE1 monomer (3.1 svedbergs) and dimer (4.6 svedbergs) are highlighted by dotted lines. Source data are provided as a Source Data file.

A further experiment has as its target T2, PERK (Homo sapiens, UniProt Q9NZJ5).
T2 construct: gene EIF2AK3
T2 sequence (Q9NZJ5 1-1116): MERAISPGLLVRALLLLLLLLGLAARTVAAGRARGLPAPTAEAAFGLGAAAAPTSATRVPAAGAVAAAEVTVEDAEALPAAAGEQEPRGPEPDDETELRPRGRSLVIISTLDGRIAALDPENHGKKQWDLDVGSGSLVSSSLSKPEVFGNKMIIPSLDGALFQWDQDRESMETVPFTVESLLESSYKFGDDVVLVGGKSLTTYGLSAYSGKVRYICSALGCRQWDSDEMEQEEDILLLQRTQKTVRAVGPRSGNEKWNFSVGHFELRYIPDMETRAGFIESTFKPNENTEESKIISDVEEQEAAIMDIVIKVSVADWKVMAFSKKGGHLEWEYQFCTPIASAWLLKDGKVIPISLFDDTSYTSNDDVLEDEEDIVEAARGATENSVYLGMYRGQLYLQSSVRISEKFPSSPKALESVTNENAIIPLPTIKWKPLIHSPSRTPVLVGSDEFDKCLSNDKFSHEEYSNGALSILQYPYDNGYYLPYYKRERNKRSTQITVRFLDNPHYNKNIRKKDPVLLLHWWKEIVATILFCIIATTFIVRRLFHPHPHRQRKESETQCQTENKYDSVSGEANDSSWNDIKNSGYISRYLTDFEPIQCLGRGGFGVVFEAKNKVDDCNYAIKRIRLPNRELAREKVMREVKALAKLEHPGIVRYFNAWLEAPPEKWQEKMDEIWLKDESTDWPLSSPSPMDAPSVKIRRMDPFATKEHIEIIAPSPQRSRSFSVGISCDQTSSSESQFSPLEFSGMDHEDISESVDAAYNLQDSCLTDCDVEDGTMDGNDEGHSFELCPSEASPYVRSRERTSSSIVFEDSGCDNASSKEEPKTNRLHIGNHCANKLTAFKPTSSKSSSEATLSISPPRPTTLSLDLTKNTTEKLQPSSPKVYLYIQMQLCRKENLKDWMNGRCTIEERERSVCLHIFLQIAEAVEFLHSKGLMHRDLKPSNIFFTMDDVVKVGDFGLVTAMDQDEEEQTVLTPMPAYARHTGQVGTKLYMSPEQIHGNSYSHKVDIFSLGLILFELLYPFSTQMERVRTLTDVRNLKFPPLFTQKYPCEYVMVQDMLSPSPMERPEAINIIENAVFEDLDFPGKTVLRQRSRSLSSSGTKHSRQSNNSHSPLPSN
Also noted: 33P incorporation kinase assay (Reaction Biology), myelin basic protein substrate. Conditions: 10 uM ATP. An excerpt:
We set out to identify allosteric activators of IRE1 RNase by screening internal compound libraries for binding to the kinase, using a published ATP-competitive TR-FRET assay. We then tested kinase binders to assess RNase modulation in an IRE1-specific kinetic RNA cleavage assay that uses the cytoplasmic construct IRE1-LKR (Q470-L977) (Supplementary Fig. 1a). […] Next, we tested these compounds in KMS-11 multiple myeloma cells, known to express functional IRE1 and strongly depend on the IRE1 pathway due to hyper-production of immunoglobulins in the ER[31]. We measured mRNA levels of XBP1s and the well-established RIDD target DGAT2[22] (Fig. 1c and Supplementary Fig. 1c, respectively) using a branched DNA (bDNA) assay. […] Importantly, neither G-9807 nor G-1749 inhibit PERK (Supplementary Table 1).

[2] abbreviates: RNase activation, read-out: EC50 (RNase biochemical assay), activators.

Inositol-Requiring Enzyme 1 (IRE1), sequence (O75460 547-977): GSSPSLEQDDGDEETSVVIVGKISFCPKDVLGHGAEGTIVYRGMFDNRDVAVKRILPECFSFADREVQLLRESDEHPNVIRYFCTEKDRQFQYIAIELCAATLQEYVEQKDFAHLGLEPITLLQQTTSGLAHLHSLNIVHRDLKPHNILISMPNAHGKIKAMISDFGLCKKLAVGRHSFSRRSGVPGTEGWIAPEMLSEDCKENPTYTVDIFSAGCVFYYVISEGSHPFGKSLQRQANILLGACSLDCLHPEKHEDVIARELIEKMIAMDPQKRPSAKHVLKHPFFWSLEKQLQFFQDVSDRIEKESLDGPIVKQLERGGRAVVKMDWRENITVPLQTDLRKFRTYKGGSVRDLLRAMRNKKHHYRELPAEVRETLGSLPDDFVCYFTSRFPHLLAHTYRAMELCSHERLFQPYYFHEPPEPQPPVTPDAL
T1 sequence (Q16512 whole entry): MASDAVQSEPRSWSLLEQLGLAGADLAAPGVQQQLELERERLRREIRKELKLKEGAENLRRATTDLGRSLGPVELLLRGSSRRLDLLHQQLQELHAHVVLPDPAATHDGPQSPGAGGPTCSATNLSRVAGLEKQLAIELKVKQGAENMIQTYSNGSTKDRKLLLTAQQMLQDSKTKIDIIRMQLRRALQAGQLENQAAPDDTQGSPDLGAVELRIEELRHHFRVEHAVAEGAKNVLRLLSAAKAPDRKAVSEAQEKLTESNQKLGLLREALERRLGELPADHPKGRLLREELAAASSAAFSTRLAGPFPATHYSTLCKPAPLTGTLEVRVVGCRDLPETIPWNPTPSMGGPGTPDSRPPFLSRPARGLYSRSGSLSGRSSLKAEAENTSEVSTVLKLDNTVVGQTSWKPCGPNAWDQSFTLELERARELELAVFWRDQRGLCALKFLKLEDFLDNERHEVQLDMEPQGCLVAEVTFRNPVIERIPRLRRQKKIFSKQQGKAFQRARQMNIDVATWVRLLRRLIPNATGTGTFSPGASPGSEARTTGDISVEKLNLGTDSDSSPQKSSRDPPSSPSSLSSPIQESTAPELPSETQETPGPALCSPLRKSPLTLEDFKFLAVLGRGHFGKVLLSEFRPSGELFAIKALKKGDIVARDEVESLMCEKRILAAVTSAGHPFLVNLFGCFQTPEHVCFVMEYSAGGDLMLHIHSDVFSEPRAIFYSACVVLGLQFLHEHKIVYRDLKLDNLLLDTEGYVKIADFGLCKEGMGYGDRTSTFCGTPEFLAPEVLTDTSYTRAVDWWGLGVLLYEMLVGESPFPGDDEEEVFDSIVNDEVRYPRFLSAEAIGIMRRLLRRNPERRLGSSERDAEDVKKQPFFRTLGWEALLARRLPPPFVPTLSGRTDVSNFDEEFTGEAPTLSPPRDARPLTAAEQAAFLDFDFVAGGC

The term inhibition denotes the drop in the measured response relative to a control, in per cent. In general, EC50 refers to the concentration needed to bring the measured effect to its halfway point. As for `CC#CC(=O)Nc1cccc2c(Oc3ncccc3-c3ccnc(N[C@H]4CCCNC4)n3)c(C)ccc12` [G-7658], at PRK1, the inhibition at 1 µM is -1.5%. Also, the EC50 in experiment [1] (setting [2]) worked out at 7 ± 1 nM.

For the compound `CCOC(=O)Nc1cccc2c(Oc3ncccc3-c3ccnc(N[C@H]4CCCNC4)n3)c(C)ccc12` [G-1749], the inhibition at 1 µM at PRK1 amounted to 0%; against PERK it was 9.9%. Moreover, the EC50 in experiment [1] (setting [2]) came to 9 ± 3 nM.

As to `Cc1ccc2c(NS(=O)(=O)c3ccccc3Cl)cccc2c1Oc1ncccc1-c1ccnc(N[C@H]2CCCNC2)n1` [AMG-18], the inhibition at 1 µM against PERK worked out at 5.4%. Further, the EC50 in experiment [1] (RNase inhibition, read-out: EC50 (RNase biochemical assay), inhibitors) amounted to 17 ± 4 nM.

For `O=c1cc(-c2n[nH]c3ncc(-c4c(F)cccc4F)cc23)nc(N2CCC(O)CC2)[nH]1` [G-9807], the inhibition at 1 µM against PERK turned out to be 4.5%. The EC50 in experiment [1] (setting [2]) stood at 18 ± 3 nM.
